# From patent publication EP4813989A1, “CRYSTAL, PHARMACEUTICAL COMPOSITION, PREPARATION METHOD THEREFOR, AND USE THEREOF” (TYK Medicines, Inc., priority 2023, dated 2025)
# Tests used:
# [1] = Pharmacokinetic test in SD rats; type: in vivo; details: rats; for AUC(0-inf) / AUC(0-t) / Cmax / MRT last: 10 mg/kg; for Plasma concentration: 10 mg/kg p.o.
# Procedure: Experimental animals: healthy adult SD rats, male, 6 in total, divided into two groups, with 3 rats per group, aged 6-8 weeks; and body weight approximately 200-300 g. The rats were fed in rat cages, and fasted (for at least 10 hours) with free access to water one day before the experiment. On the day of experiment, the rats were weighed and marked at the tail respectively. Blank blood samples were collected respectively before drug administration. The blood samples were collected via the tail vein. Drug administration method: intragastric gavage (p.o.): intragastric gavage with drug suspension; preparation of drug suspension: approximately 10 mg of test sample was accurately weighed, dissolved in 5% DMSO (calculated proportion), and vortexed with 10% solutol HS-15 and 85% saline to obtain a suspension with a concentration of 1.0 mg/mL; and the suspension was freshly prepared before use.
# Sample collection: the rats were administered a single oral dose of 10mg/kg via intragastric gavage (p.o.). Timing was started immediately after the administration was completed, and blood samples were collected at 0.5, 1, 2, 4, 6, 8, 12 and 24 hours after administration. A volume of 0.1mL of whole blood was collected into EDTA-Na2 anticoagulant tubes, mixed by inverting 3-4 times, centrifuged at 10000 g for 5 minutes at 4°C to separate the plasma, and then the plasma was stored at -80 °C until testing. The blood samples were collected via the tail vein.
# Sample preparation: 1) the samples were thawed, and 15 µL of unknown plasma samples before or after administration, standard series solutions, and single blank and double blank samples were respectively transferred into 1.5 mL centrifuge tubes. 2) 15 µL of protein precipitant (methanol) and 400 µL of internal standard solution (verapamil in methanol, approximately 10 ng/mL) were added to each sample sequentially, vortexed for 2 minutes, and then centrifuged at 4°C and 12000 rpm for 10 minutes. 3) The supernatant was collected for LC-MS/MS detection.
# Analytical conditions: liquid chromatography conditions: liquid chromatography system: Shimadzu Nexera X2; chromatographic column: Agilent ZORBAX XDB-C18 3.5 (2.1 × 50 mm); column temperature: 35°C; mobile phase: A-5% acetonitrile (0.1% formic acid in water), B-95% acetonitrile (0.1% formic acid in water); injection volume: 3 µL; and
# flow rate: 0.5 mL/min. Gradient elution was employed, and an elution program can be seen in the table below.
# Mass spectrometry conditions: mass spectrometric analysis was carried out using an electrospray ionization (ESI) source in a positive ion mode with multiple reaction monitoring (MRM). The mass spectrometer ion source parameters and compound detection parameters can be seen in the table below.
# PK parameter processing: pharmacokinetic (PK) parameters were calculated according to a plasma concentration from individual plasma concentration and corresponding sampling time data using Phoenix WinNonlin software with a non-compartmental model. (1) The PK parameters used for pharmacokinetic evaluation included: Cmax, AUC0-t, AUC0-∞, Tmax and t1/2.
# (2) The parameters used for bioequivalence evaluation: Cmax, AUC0-t and AUC0-∞ were used for the bioequivalence evaluation.
# Cmax: maximum plasma concentration measured within specified period, presented as measured value.
# Tmax: time measured to reach maximum plasma concentration, presented as measured value. If the maximum value occurred at more than one time point, Tmax was defined as the first time point at which this value was observed.
# AUC0-t: area under plasma concentration-time curve from 0 to last time point t.
# AUC0-∞: area under plasma concentration-time curve from 0 to infinity. Ct was the last measured concentration, and λz was the terminal elimination rate constant. AUC0−∞ = AUC0−t + (Ct)/(λz)AUC0−∞ = AUC0−t + (Ct)/(λz) [formula]
# t1/2: elimination or terminal half-life, estimated by ln2/λz.
# [2] = Solid form stability on standing (XRD/PLM); type: physicochemical; details: air-dried, open storage at room temperature, approximately 1 day
# Text: The resulting solid sample was subjected to a corresponding characterization test. An XRD pattern of the sample can be seen in FIG. 8.
# A crystal form E sample was obtained by suspending and stirring the amorphous sample prepared in Example 2 in a 1,4-dioxane/n-heptane solvent system at room temperature. XRD results of the sample can be seen in FIG. 9. […] On this basis, it was inferred that the crystal form E was a metastable crystal form.
# XRD results of the sample can be seen in FIG. 17.
# XRD results of the sample can be seen in FIG. 20. TGA/DSC results can be seen in FIG. 21. […] An ^1H NMR spectrum of the crystal form D was obtained by a test in DMSO-d6, and no obvious solvent residue was observed. […] Based on nuclear magnetic resonance data and heating test results of the sample, it was inferred that the crystal form D was a hydrate crystal form.
# [3] = rat, in vivo, po, intragastric gavage 10 mg/kg, Mean
# [4] = rat, in vivo, po, intragastric gavage 10 mg/kg, No. 1
# [5] = rat, in vivo, po, intragastric gavage 10 mg/kg, No. 2
# [6] = rat, in vivo, po, intragastric gavage 10 mg/kg, No. 3
smiles,measurement,setting,value
C[C@@H](Nc1ccn2ncc(C3=NOC(C)(C)N3)c2n1)c1cc(F)cc(F)c1F [crystal form A],AUC(0-inf),[1]; [3],4800 ng·h/mL
same,AUC(0-t),[1]; [3],4730 ng·h/mL
same,Cmax,[1]; [3],578 ng/mL
same,MRT last,[1]; [3],6.09 h
same,AUC(0-inf),[1]; [4],4390 ng·h/mL
same,AUC(0-t),[1]; [4],4320 ng·h/mL
same,Cmax,[1]; [4],652 ng/mL
same,MRT last,[1]; [4],6.09 h
same,AUC(0-inf),[1]; [5],3580 ng·h/mL
same,AUC(0-t),[1]; [5],3550 ng·h/mL
same,Cmax,[1]; [5],459 ng/mL
same,MRT last,[1]; [5],5.52 h
same,AUC(0-inf),[1]; [6],6440 ng·h/mL
same,AUC(0-t),[1]; [6],6330 ng·h/mL
same,Cmax,[1]; [6],623 ng/mL
same,MRT last,[1]; [6],6.66 h
same,Tmax,[1]; [4],4 h
same,Plasma concentration,"[1]; 0.5 h, Mean",224 ng/mL
same,Plasma concentration,"[1]; 0.5 h, No. 1",220 ng/mL
same,Plasma concentration,"[1]; 0.5 h, No. 2",168 ng/mL
same,Plasma concentration,"[1]; 0.5 h, No. 3",285 ng/mL
same,Plasma concentration,"[1]; 1 h, Mean",300 ng/mL
same,Plasma concentration,"[1]; 1 h, No. 1",170 ng/mL
same,Plasma concentration,"[1]; 1 h, No. 2",257 ng/mL
same,Plasma concentration,"[1]; 1 h, No. 3",474 ng/mL
same,Plasma concentration,"[1]; 2 h, Mean",457 ng/mL
same,Plasma concentration,"[1]; 2 h, No. 1",448 ng/mL
same,Plasma concentration,"[1]; 2 h, No. 2",453 ng/mL
same,Plasma concentration,"[1]; 2 h, No. 3",470 ng/mL
same,Plasma concentration,"[1]; 4 h, Mean",578 ng/mL
same,Plasma concentration,"[1]; 4 h, No. 1",652 ng/mL
same,Plasma concentration,"[1]; 4 h, No. 2",459 ng/mL
same,Plasma concentration,"[1]; 4 h, No. 3",623 ng/mL
same,Plasma concentration,"[1]; 6 h, Mean",395 ng/mL
same,Plasma concentration,"[1]; 6 h, No. 1",307 ng/mL
same,Plasma concentration,"[1]; 6 h, No. 2",277 ng/mL
same,Plasma concentration,"[1]; 6 h, No. 3",602 ng/mL
same,Plasma concentration,"[1]; 8 h, Mean",312 ng/mL
same,Plasma concentration,"[1]; 8 h, No. 1",240 ng/mL
same,Plasma concentration,"[1]; 8 h, No. 2",238 ng/mL
same,Plasma concentration,"[1]; 8 h, No. 3",459 ng/mL
same,Plasma concentration,"[1]; 12 h, Mean",93.8 ng/mL
same,Plasma concentration,"[1]; 12 h, No. 1",88.3 ng/mL
same,Plasma concentration,"[1]; 12 h, No. 2",47.2 ng/mL
same,Plasma concentration,"[1]; 12 h, No. 3",146 ng/mL
same,Plasma concentration,"[1]; 24 h, Mean",12.7 ng/mL
same,Plasma concentration,"[1]; 24 h, No. 1",11.6 ng/mL
same,Plasma concentration,"[1]; 24 h, No. 2",5.25 ng/mL
same,Plasma concentration,"[1]; 24 h, No. 3",21.3 ng/mL
same,HL_,"[1]; intragastric gavage 10 mg/kg, Mean",3.51 h
same,HL_,"[1]; intragastric gavage 10 mg/kg, No. 1",3.76 h
same,HL_,"[1]; intragastric gavage 10 mg/kg, No. 2",3.07 h
same,HL_,"[1]; intragastric gavage 10 mg/kg, No. 3",3.70 h
C[C@@H](Nc1ccn2ncc(C3=NOC(C)(C)N3)c2n1)c1cc(F)cc(F)c1F [crystal form E],Solid form stability,[2],transformed into the crystal form A
